Among the data in BindingDB's records for doi:10.1016/j.bmcl.2008.01.028 (Nih, 2008) are IC50 values, retold here.

The assay concerns the target cAMP-specific 3',5'-cyclic phosphodiesterase 4A (Homo sapiens, UniProt P27815). As to the kind of experiment: PDE4A Inhibition Assay. The procedure: Inhibition of PDE4A was performed using IMAP technology (Molecular Devices, CA). PDE4A1A mixture was dispensed into 1536-well black/solid bottom assay plates (Greiner Bio-One North America, NC) using a Flying Reagent Dispenser (Aurora Discovery, CA). The plates were centrifuged at 1000 rpm for 30s and compound was transferred to the assay plate using a Kalypsys pin tool. After incubation, cAMP was dispensed into the plates to initiate the reaction. IMAP binding reagent was then added to the assay plate after the reaction.

Sequence of cAMP-specific 3',5'-cyclic phosphodiesterase 4A (P27815 whole entry): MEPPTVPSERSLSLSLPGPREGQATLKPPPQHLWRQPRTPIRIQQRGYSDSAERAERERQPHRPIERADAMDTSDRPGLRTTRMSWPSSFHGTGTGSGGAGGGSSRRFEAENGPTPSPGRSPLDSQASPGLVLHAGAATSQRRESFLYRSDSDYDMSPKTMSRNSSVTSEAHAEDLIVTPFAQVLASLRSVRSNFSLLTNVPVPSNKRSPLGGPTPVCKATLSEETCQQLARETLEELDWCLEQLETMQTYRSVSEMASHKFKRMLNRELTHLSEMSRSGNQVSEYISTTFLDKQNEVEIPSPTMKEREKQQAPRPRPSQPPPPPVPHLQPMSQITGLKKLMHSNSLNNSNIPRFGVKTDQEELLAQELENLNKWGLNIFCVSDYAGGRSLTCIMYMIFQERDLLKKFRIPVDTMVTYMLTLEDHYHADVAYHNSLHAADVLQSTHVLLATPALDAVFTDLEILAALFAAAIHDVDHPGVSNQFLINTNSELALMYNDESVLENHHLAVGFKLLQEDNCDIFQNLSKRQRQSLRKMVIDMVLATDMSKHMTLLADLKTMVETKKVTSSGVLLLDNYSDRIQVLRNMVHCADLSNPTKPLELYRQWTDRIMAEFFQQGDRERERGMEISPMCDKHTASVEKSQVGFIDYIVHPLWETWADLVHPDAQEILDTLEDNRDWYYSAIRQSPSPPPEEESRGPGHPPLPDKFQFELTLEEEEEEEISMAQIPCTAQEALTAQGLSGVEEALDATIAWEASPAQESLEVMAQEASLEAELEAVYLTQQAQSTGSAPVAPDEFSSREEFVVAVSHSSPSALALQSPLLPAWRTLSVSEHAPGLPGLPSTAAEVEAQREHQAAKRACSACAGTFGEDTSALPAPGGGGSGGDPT

As for `COc1cccc(OC)c1C1=Nn2c(nnc2-c2ccccc2O)SC1` [triazolothiadiazine, 11K], the half-inhibitory concentration (IC50) (usually the point on the concentration scale where inhibition reaches its midpoint) is greater than 20 µM.
